Five compounds from the NIST ThermoML archive (doi:10.1021/je501162f) can be followed below.

± gives the expanded uncertainty stated by the source.

The conditions of the first data set: 293.15 K; 101.33 kPa; Liquid; Vibrating tube method.
As a reminder, the mass density is the mass of a sample divided by its volume. On to `CCCCCCCC[n+]1ccn(C)c1.C[C@H](N)C(=O)[O-]` [1-methyl-3-octylimidazolium L-alaninate], for which the mass density stood at 985.3 ± 2.1 kg/m3.

Consider `CCCCCCCCn1cc[n+](C)c1.NCC(=O)[O-]` [1-methyl-3-octylimidazolium glycinate], for which the mass density is on record as 1041.7 ± 2.2 kg/m3.

On to `CCCCCCCCn1cc[n+](C)c1.O=C([O-])[C@@H]1CCCN1` [1-methyl-3-octyl-1H-imidazol-3-ium L-prolinate], for which the mass density is on record as 1064.5 ± 2.2 kg/m3.

The same data set, now with this note: 293.15 K; Liquid; Pendant drop shape.
Usually surface tension liquid-gas stands for the force per length acting along the surface. Regarding `CCCCCCCC[n+]1ccn(C)c1.N[C@@H](CO)C(=O)[O-]` [1-methyl-3-octyl-1H-imidazol-3-ium L-serinate], the surface tension liquid-gas amounted to 34.29 ± 0.68 mN/m.

For `CCCCCCCC[n+]1ccn(C)c1.NC(=O)C[C@H](N)C(=O)[O-]` [1-methyl-3-octylimidazolium L-asparaginate], the surface tension liquid-gas was 34.32 ± 0.68 mN/m.

As for `CCCCCCCC[n+]1ccn(C)c1.C[C@H](N)C(=O)[O-]` [1-methyl-3-octylimidazolium L-alaninate], the surface tension liquid-gas turned out to be 28.24 ± 0.63 mN/m.

As for `CCCCCCCCn1cc[n+](C)c1.NCC(=O)[O-]` [1-methyl-3-octylimidazolium glycinate], the surface tension liquid-gas amounted to 35.37 ± 0.69 mN/m.

Take `CCCCCCCCn1cc[n+](C)c1.O=C([O-])[C@@H]1CCCN1` [1-methyl-3-octyl-1H-imidazol-3-ium L-prolinate]: the surface tension liquid-gas was 29.28 ± 0.64 mN/m.

The data set is the same for the next values; noted with them: 303.15 K; 101.33 kPa; Liquid.
What is called viscosity is the resistance of a fluid to flow. Turning to `CCCCCCCC[n+]1ccn(C)c1.N[C@@H](CO)C(=O)[O-]` [1-methyl-3-octyl-1H-imidazol-3-ium L-serinate], the viscosity worked out at 1178.7 ± 150 mPa·s.

Consider `CCCCCCCC[n+]1ccn(C)c1.NC(=O)C[C@H](N)C(=O)[O-]` [1-methyl-3-octylimidazolium L-asparaginate], for which the viscosity was 3519.9 ± 610 mPa·s.

Turning to `CCCCCCCC[n+]1ccn(C)c1.C[C@H](N)C(=O)[O-]` [1-methyl-3-octylimidazolium L-alaninate], the viscosity was found to be 347.3 ± 28 mPa·s.

Turning to `CCCCCCCCn1cc[n+](C)c1.NCC(=O)[O-]` [1-methyl-3-octylimidazolium glycinate], the viscosity is recorded as 248.2 ± 17 mPa·s.

Consider `CCCCCCCCn1cc[n+](C)c1.O=C([O-])[C@@H]1CCCN1` [1-methyl-3-octyl-1H-imidazol-3-ium L-prolinate], for which the viscosity is 839.9 ± 97 mPa·s.

The same data set, now with this note: 303.15 K; 101.33 kPa; Liquid; Vibrating tube method.
Regarding `CCCCCCCC[n+]1ccn(C)c1.N[C@@H](CO)C(=O)[O-]` [1-methyl-3-octyl-1H-imidazol-3-ium L-serinate], the mass density is given as 1069.3 ± 2.2 kg/m3.

Take `CCCCCCCC[n+]1ccn(C)c1.NC(=O)C[C@H](N)C(=O)[O-]` [1-methyl-3-octylimidazolium L-asparaginate]: the mass density worked out at 1061.7 ± 2.2 kg/m3.

As for `CCCCCCCC[n+]1ccn(C)c1.C[C@H](N)C(=O)[O-]` [1-methyl-3-octylimidazolium L-alaninate], the mass density was found to be 982.1 ± 2.1 kg/m3.

As for `CCCCCCCCn1cc[n+](C)c1.NCC(=O)[O-]` [1-methyl-3-octylimidazolium glycinate], the mass density worked out at 1035.3 ± 2.2 kg/m3.

Take `CCCCCCCCn1cc[n+](C)c1.O=C([O-])[C@@H]1CCCN1` [1-methyl-3-octyl-1H-imidazol-3-ium L-prolinate]: the mass density turned out to be 1058.2 ± 2.2 kg/m3.

Still in this data set, the particulars now being: 303.15 K; Liquid; Pendant drop shape.
For the compound `CCCCCCCC[n+]1ccn(C)c1.N[C@@H](CO)C(=O)[O-]` [1-methyl-3-octyl-1H-imidazol-3-ium L-serinate], the surface tension liquid-gas stood at 32.8 ± 0.67 mN/m.

As for `CCCCCCCC[n+]1ccn(C)c1.NC(=O)C[C@H](N)C(=O)[O-]` [1-methyl-3-octylimidazolium L-asparaginate], the surface tension liquid-gas turned out to be 33.7 ± 0.68 mN/m.

For the compound `CCCCCCCC[n+]1ccn(C)c1.C[C@H](N)C(=O)[O-]` [1-methyl-3-octylimidazolium L-alaninate], the surface tension liquid-gas is 27.9 ± 0.63 mN/m.

Take `CCCCCCCCn1cc[n+](C)c1.NCC(=O)[O-]` [1-methyl-3-octylimidazolium glycinate]: the surface tension liquid-gas was determined as 33.98 ± 0.68 mN/m.

Take `CCCCCCCCn1cc[n+](C)c1.O=C([O-])[C@@H]1CCCN1` [1-methyl-3-octyl-1H-imidazol-3-ium L-prolinate]: the surface tension liquid-gas amounted to 28.88 ± 0.64 mN/m.

The same data set, now with this note: 313.15 K; 101.33 kPa; Liquid.
Regarding `CCCCCCCC[n+]1ccn(C)c1.N[C@@H](CO)C(=O)[O-]` [1-methyl-3-octyl-1H-imidazol-3-ium L-serinate], the viscosity is 536.2 ± 52 mPa·s.

For the compound `CCCCCCCC[n+]1ccn(C)c1.NC(=O)C[C@H](N)C(=O)[O-]` [1-methyl-3-octylimidazolium L-asparaginate], the viscosity amounted to 1436.8 ± 200 mPa·s.

As for `CCCCCCCC[n+]1ccn(C)c1.C[C@H](N)C(=O)[O-]` [1-methyl-3-octylimidazolium L-alaninate], the viscosity came out at 184.6 ± 10 mPa·s.

In the case of `CCCCCCCCn1cc[n+](C)c1.NCC(=O)[O-]` [1-methyl-3-octylimidazolium glycinate], the viscosity came out at 137.9 ± 6.3 mPa·s.

Take `CCCCCCCCn1cc[n+](C)c1.O=C([O-])[C@@H]1CCCN1` [1-methyl-3-octyl-1H-imidazol-3-ium L-prolinate]: the viscosity is reported as 401.2 ± 35 mPa·s.

Still in this data set, the particulars now being: 313.15 K; 101.33 kPa; Liquid; Vibrating tube method.
For `CCCCCCCC[n+]1ccn(C)c1.N[C@@H](CO)C(=O)[O-]` [1-methyl-3-octyl-1H-imidazol-3-ium L-serinate], the mass density is reported as 1062.7 ± 2.2 kg/m3.

On to `CCCCCCCC[n+]1ccn(C)c1.NC(=O)C[C@H](N)C(=O)[O-]` [1-methyl-3-octylimidazolium L-asparaginate], for which the mass density stood at 1057.2 ± 2.2 kg/m3.

As to `CCCCCCCC[n+]1ccn(C)c1.C[C@H](N)C(=O)[O-]` [1-methyl-3-octylimidazolium L-alaninate], the mass density amounted to 978.6 ± 2.1 kg/m3.

In the case of `CCCCCCCCn1cc[n+](C)c1.NCC(=O)[O-]` [1-methyl-3-octylimidazolium glycinate], the mass density is reported as 1029.1 ± 2.2 kg/m3.

Take `CCCCCCCCn1cc[n+](C)c1.O=C([O-])[C@@H]1CCCN1` [1-methyl-3-octyl-1H-imidazol-3-ium L-prolinate]: the mass density is reported as 1051.8 ± 2.2 kg/m3.

The same data set, now with this note: 313.15 K; Liquid; Pendant drop shape.
On to `CCCCCCCC[n+]1ccn(C)c1.N[C@@H](CO)C(=O)[O-]` [1-methyl-3-octyl-1H-imidazol-3-ium L-serinate], for which the surface tension liquid-gas was found to be 32.2 ± 0.7 mN/m.

As for `CCCCCCCC[n+]1ccn(C)c1.NC(=O)C[C@H](N)C(=O)[O-]` [1-methyl-3-octylimidazolium L-asparaginate], the surface tension liquid-gas stood at 32.96 ± 0.67 mN/m.

As for `CCCCCCCC[n+]1ccn(C)c1.C[C@H](N)C(=O)[O-]` [1-methyl-3-octylimidazolium L-alaninate], the surface tension liquid-gas stood at 27.23 ± 0.63 mN/m.

For the compound `CCCCCCCCn1cc[n+](C)c1.NCC(=O)[O-]` [1-methyl-3-octylimidazolium glycinate], the surface tension liquid-gas was 32.81 ± 0.67 mN/m.

Consider `CCCCCCCCn1cc[n+](C)c1.O=C([O-])[C@@H]1CCCN1` [1-methyl-3-octyl-1H-imidazol-3-ium L-prolinate], for which the surface tension liquid-gas turned out to be 28.46 ± 0.64 mN/m.

The same data set, now with this note: 323.15 K; 101.33 kPa; Liquid.
`CCCCCCCC[n+]1ccn(C)c1.N[C@@H](CO)C(=O)[O-]` [1-methyl-3-octyl-1H-imidazol-3-ium L-serinate]: the viscosity is given as 271.2 ± 19 mPa·s.

As for `CCCCCCCC[n+]1ccn(C)c1.NC(=O)C[C@H](N)C(=O)[O-]` [1-methyl-3-octylimidazolium L-asparaginate], the viscosity stood at 659.1 ± 70 mPa·s.

Turning to `CCCCCCCC[n+]1ccn(C)c1.C[C@H](N)C(=O)[O-]` [1-methyl-3-octylimidazolium L-alaninate], the viscosity was 106.9 ± 4 mPa·s.
